Test results: patent US20080010691A1, “Method of Screening Therapeutic Agent for Irritable Bowel Syndrome” (priority 2005, published 2008)
Where a name gives a salt, the structure may show the parent alone. Marks after values point to notes of the source that are not given here.

Legend:
[1] = test system: conditioned fear stressed animal model (distal large intestine transport); experiment: Distal large intestine transport ability by beads discharge method after CFS loading; type: in vivo, rat; settings: control group 13.70, normal group 0.38
Method: (§1) Male Sprague-Dawley rats (6 to 7 weeks of age, CLEA Japan) were used. The rats which passed about 1 week after their receipt were used in the test by 12 animals per group. The electric shock conditions were set in accordance with Example 1. That is, the rats were put into an electric shock device (17×17×39 cm, CB 2000 type, O'Hara) having an electrode set in the floor, and after 3 seconds of warning sound, their conditioning was carried out by applying an electric current of 2.5 mA for 5 seconds per minute per once, a total of 15 times, and irradiating light at the time of the electric shock using 3 electric bulbs of 40 w. The normal group was put into the electric shock device by the same protocol, but without applying the electric shock. From 20 to 24 hours thereafter, each drug to be tested was orally administered to each animal by force at a dose of 5 mL/kg, they were again put into the electric shock device 1 hour thereafter, and then a conditioned fear stress (CFS) loading was carried out by applying 3 seconds of warning sound and subsequent 5 seconds of light irradiation for 30 minutes.
Measurement of large intestine transport ability by a beads discharge method was carried out by modifying the method of Negri et al. (British Journal of Pharmacology, 1999, no. 128, p. 1554-60). That is, under light ether anesthesia, silicon beads (3 mm in diameter) were inserted in a length of 3 cm into the rectum side from the anus part using a silicon rod. After waking, the silicon rod was immediately removed to carry out CFS loading. The CFS loading starting time and silicon beads discharging time were recorded, and the measurement finishing time was set to 90 minutes in CFS group and 8 hours in normal group after the starting of the measurement. The distal large intestine transport ability (mm/min) was calculated as 30 mm÷required beads discharge time (min).

[2] = test system: conditioned fear stressed animal model (proximal large intestine transport); experiment: Proximal large intestine transport ability by marker method after CFS loading; type: in vivo, rat; settings: 30 minutes after CFS loading
Method: as §1, with “test.” for “test by 12 animals per group.”
Measurement of proximal large intestine transport ability by a marker method was carried out by modifying the method of Kadowaki et al. (Journal of Pharmacology and Experimental Therapeutics, 1993, vol. 266, p. 74-80). That is, abdominal part of each rat was subjected to median incision (about 1 cm) under pentobarbital (50 mg/kg ip) anesthesia, and the ileocecal junction was extracted. A large intestinal part of about 1 cm from the connecting part was extracted from the neck by inserting canula (SP 50). The animals were individually reared for 5 days until the test, under conditions of free ingestion and free drinking. A Carmine Red solution (0.2 mL of 0.5% methyl cellulose solution containing 3 g of Carmine Red and 5 g of acacia) was injected trough the canula, CFS was loaded for 30 minutes by the aforementioned method, and then the animals were sacrificed by a decapitation device. By quickly carrying out median incision, large intestine starting part-anus part was extracted, and the whole length and marker shifting distance were measured using the canula insertion part as the starting point. The large intestine transport ability (%) was calculated as (marker shifting distance)÷(whole length)×100.

[3] = test system: conditioned fear stressed animal model (abnormal evacuation); experiment: Conditioned fear stress (CFS)-induced abnormal evacuation, wet feces weight; type: in vivo, rat; settings: oral administration 1 hour before CFS loading; 30 minutes CFS; linear regression, n=12
Text: (§2) Male Sprague-Dawley rats (6 weeks of age, CLEA Japan) were used. The rats which passed 1 week or more after their receipt were divided into groups of 12 animals per group in such a manner that their average values and standard deviations of body weight became almost the same. The electric shock conditions were set in accordance with the results of preliminary examinations. That is, the rats were put into an electric shock device (17×17×39 cm, CB 2000 type, O'Hara) having an electrode set in the floor, and after 3 seconds of warning sound, their conditioning was carried out by applying an electric current of 2 mA at the maximum for 5 seconds per once per minute, a total of 15 times, and irradiating light at the time of the electric shock using 3 electric bulbs of 40 w. The control group was put into the electric shock device by the same protocol, but without applying the electric shock. From 18 to 24 hours thereafter, each drug to be tested was orally administered to each animal by force at a dose of 5 mL/kg, they were again put into the electric shock device 1 hour thereafter, and then a conditioned fear stress (CFS) loading was carried out by applying 3 seconds of warning sound and subsequent 5 seconds of light irradiation for 30 minutes.
The number of evacuations was recorded after 2, 4, 6, 8, 10, 15, 20, 25 and 30 minutes of the commencement of the CFS loading, and wet weights of feces were measured by recovering the feces at the time of the completion of the measurement. In addition, the feces were dried at 70° C. for 22 hours and then their dry weights were measured to calculate the moisture content. In this connection, the evacuations just after putting them into the measuring device were excluded from the measured values of the number of evacuations and feces weights.

[4] = test system: conditioned fear stressed animal model (freezing behavior); experiment: CFS-induced freezing behavior; type: in vivo, rat; settings: oral; for influence upon CFS-induced freezing behavior: 30 minutes observation after CFS loading, all of the doses tested
Text: as §2
Regarding the measurement of freezing behavior (freezing), a case of not moving at all during 30 seconds other than the movement accompanied by breathing was evaluated as the freezing behavior. The evaluation times were set to 0, 1, 3, 5, 7, 9, 12, 13, 14, 17, 18, 19, 22, 23, 24, 27, 28 and 29 minutes after the CFS loading, and the measurement was carried out at intervals of 30 seconds per minute. The ratio (%) of showing the freezing behavior by each animal was calculated in 3 plots of from 0 to 9 minutes (Block 1), from 10 to 19 minutes (Block 2) and from 20 to 29 minutes (Block 3) after the loading.

[5] = test system: conditioned fear stressed animal model; settings: cited from earlier work; for freezing behavior: reported in the literature (Non-patent References 4-7)

SMILES | ED50 value of the controlling ratio of wet feces weights increased by CFS loading [3] [mg/kg] | influence upon CFS-induced freezing behavior [4] | freezing behavior [5] | further results
Cc1[nH]cnc1CN1CCc2c(c3ccccc3n2C)C1=O [Alosetron hydrochloride, alosetron hydrochloride] | 0.078 | did not exert influence |  | Distal large intestine transport ability ([1]; dose 0.3 mg/kg oral): 5.04* mm/min; proximal large intestine transport rate increased by the CFS loading ([2]; 0.3 mg/kg oral): lowered
Cc1nccn1C[C@H]1CCc2c(c3cccc4c3n2CCC4)C1=O [Cilansetron hydrochloride, cilansetron hydrochloride] | 0.094 | did not exert influence |  | Distal large intestine transport ability ([1]; dose 0.3 mg/kg oral): 5.06** mm/min; proximal large intestine transport rate increased by the CFS loading ([2]; 0.3 mg/kg oral): lowered
CN(C)C(=O)C(CCN1CCC(O)(c2ccc(Cl)cc2)CC1)(c1ccccc1)c1ccccc1 [Loperamide hydrochloride, loperamide hydrochloride] | 9.000 |  |  | Distal large intestine transport ability ([1]; dose 10 mg/kg oral): 3.64** mm/min; proximal large intestine transport rate increased by the CFS loading ([2]; 10 mg/kg oral): lowered; freezing behavior-expressing time of 20 to 29 minutes after CFS loading (Block 3) ([4]; action significant at a dose of 30 mg/kg): dose-dependently prolonged
Cn1cc(C(=O)[C@@H]2CCc3nc[nH]c3C2)c2ccccc21 [Ramosetron hydrochloride, ramosetron hydrochloride] | 0.012 | did not exert influence |  | Distal large intestine transport ability ([1]; dose 0.1 mg/kg oral): 4.93** mm/min; proximal large intestine transport rate increased by the CFS loading ([2]; 0.1 mg/kg oral): lowered
CN1C(=O)CN=C(c2ccccc2)c2cc(Cl)ccc21 [diazepam] |  |  | suppressed | 
CNCCC(Oc1ccc(C(F)(F)F)cc1)c1ccccc1 (centres unmarked) [fluoxetine] |  |  | suppressed | bowel movement ([5]; reported in the literature (Non-patent References 5-7)): suppressed
Cc1ncc2n1-c1ccc(Cl)cc1C(c1ccccc1F)=NC2 [midazolam] |  |  | suppressed | 
